Assay: xn = mol fraction of the nth substance listed
Conditions: 101 kPa, Liquid; for speed of sound: Sing-around technique in a fixed-path interferometer

COC(C)(C)C [2-methoxy-2-methylpropane] + Cc1ccc(C)cc1
Conditions | mass density [kg/m3] | speed of sound [m/s]
305.65 K, x1 = 0.051 | 844.579 | –
305.65 K, x1 = 0.111 | 837.921 | –
305.65 K, x1 = 0.199 | 827.849 | –
305.65 K, x1 = 0.297 | 816.672 | –
305.65 K, x1 = 0.394 | 805.171 | –
305.65 K, x1 = 0.5 | 792.236 | –
305.65 K, x1 = 0.591 | 780.907 | –
305.65 K, x1 = 0.7 | 767.085 | –
305.65 K, x1 = 0.799 | 753.909 | –
305.65 K, x1 = 0.898 | 740.58 | –
305.65 K, x1 = 0.949 | 733.654 | –
305.65 K, x1 = 1 | 726.444 | –
308.15 K, x1 = 0.051 | 842.382 | 1255.6
308.15 K, x1 = 0.111 | 835.701 | 1241.2
308.15 K, x1 = 0.199 | 825.592 | 1218.5
308.15 K, x1 = 0.297 | 814.375 | 1193
308.15 K, x1 = 0.394 | 802.832 | 1166.6
308.15 K, x1 = 0.5 | 789.848 | 1136.9
308.15 K, x1 = 0.591 | 778.473 | 1111.4
308.15 K, x1 = 0.7 | 764.594 | 1080.2
308.15 K, x1 = 0.799 | 751.361 | 1050.5
308.15 K, x1 = 0.898 | 737.971 | 1020.6
308.15 K, x1 = 0.949 | 731.009 | 1004.7
308.15 K, x1 = 1 | 723.763 | 990.99
310.65 K, x1 = 0.051 | 840.182 | 1245.6
310.65 K, x1 = 0.111 | 833.476 | 1230.9
310.65 K, x1 = 0.199 | 823.333 | 1208.2
310.65 K, x1 = 0.297 | 812.074 | 1182.6
310.65 K, x1 = 0.394 | 800.49 | 1156.1
310.65 K, x1 = 0.5 | 787.456 | 1126.2
310.65 K, x1 = 0.591 | 776.037 | 1100.6
310.65 K, x1 = 0.7 | 762.097 | 1069.3
310.65 K, x1 = 0.799 | 748.806 | 1039.4
310.65 K, x1 = 0.898 | 735.351 | 1009.4
310.65 K, x1 = 0.949 | 728.354 | 993.41
310.65 K, x1 = 1 | 721.069 | 979.62
313.15 K, x1 = 0.051 | 837.972 | 1235.6
313.15 K, x1 = 0.111 | 831.247 | 1220.7
313.15 K, x1 = 0.199 | 821.068 | 1197.8
313.15 K, x1 = 0.297 | 809.766 | 1172.2
313.15 K, x1 = 0.394 | 798.142 | 1145.5
313.15 K, x1 = 0.5 | 785.055 | 1115.5
313.15 K, x1 = 0.591 | 773.588 | 1089.9
313.15 K, x1 = 0.7 | 759.588 | 1058.4
313.15 K, x1 = 0.799 | 746.238 | 1028.3
313.15 K, x1 = 0.898 | 732.717 | 998.27
313.15 K, x1 = 0.949 | 725.685 | 982.13
313.15 K, x1 = 1 | 718.357 | 968.16
315.65 K, x1 = 0.051 | 835.765 | 1225.6
315.65 K, x1 = 0.111 | 829.014 | 1210.5
315.65 K, x1 = 0.199 | 818.798 | 1187.5
315.65 K, x1 = 0.297 | 807.454 | 1161.8
315.65 K, x1 = 0.394 | 795.788 | 1135
315.65 K, x1 = 0.5 | 782.649 | 1104.9
315.65 K, x1 = 0.591 | 771.132 | 1079.1
315.65 K, x1 = 0.7 | 757.069 | 1047.5
315.65 K, x1 = 0.799 | 743.66 | 1017.3
315.65 K, x1 = 0.898 | 730.073 | 987.1
315.65 K, x1 = 0.949 | 723.003 | 970.91
315.65 K, x1 = 1 | 715.636 | 956.8
318.15 K, x1 = 0.051 | 833.554 | 1215.7
318.15 K, x1 = 0.111 | 826.778 | 1200.4
318.15 K, x1 = 0.199 | 816.524 | 1177.3
318.15 K, x1 = 0.297 | 805.138 | 1151.5
318.15 K, x1 = 0.394 | 793.428 | 1124.6
318.15 K, x1 = 0.5 | 780.236 | 1094.3
318.15 K, x1 = 0.591 | 768.668 | 1068.5
318.15 K, x1 = 0.7 | 754.544 | 1036.7
318.15 K, x1 = 0.799 | 741.073 | 1006.4
318.15 K, x1 = 0.898 | 727.417 | 976.02
318.15 K, x1 = 0.949 | 720.308 | 959.76
318.15 K, x1 = 1 | 712.897 | 945.54
320.65 K, x1 = 0.051 | 831.342 | 1205.8
320.65 K, x1 = 0.111 | 824.54 | 1190.3
320.65 K, x1 = 0.199 | 814.248 | 1167.1
320.65 K, x1 = 0.297 | 802.819 | 1141.1
320.65 K, x1 = 0.394 | 791.063 | 1114.2
320.65 K, x1 = 0.5 | 777.817 | 1083.8
320.65 K, x1 = 0.591 | 766.199 | 1057.9
320.65 K, x1 = 0.7 | 752.007 | 1025.9
320.65 K, x1 = 0.799 | 738.474 | 995.49
320.65 K, x1 = 0.898 | 724.747 | 964.93
320.65 K, x1 = 0.949 | 717.599 | 948.61
320.65 K, x1 = 1 | 710.141 | 934.24
323.15 K, x1 = 0.051 | 829.134 | 1196
323.15 K, x1 = 0.111 | 822.307 | 1180.4
323.15 K, x1 = 0.199 | 811.976 | 1157.1
323.15 K, x1 = 0.297 | 800.501 | 1131
323.15 K, x1 = 0.394 | 788.703 | 1103.9
323.15 K, x1 = 0.5 | 775.403 | 1073.3
323.15 K, x1 = 0.591 | 763.728 | 1047.4
323.15 K, x1 = 0.7 | 749.471 | 1015.2
323.15 K, x1 = 0.799 | 735.877 | 984.7
323.15 K, x1 = 0.898 | 722.077 | 954
323.15 K, x1 = 0.949 | 714.887 | 937.58
323.15 K, x1 = 1 | 707.381 | 922.97
